{"source": "patent US6228345A", "about": "“In vivo assay for intravasation” (Mount Sinai School of Medicine of New York University, priority 1999, dated 2001)", "key": {"MMP-2": {"test_system": "MMP-2", "experiment": "Gelatin gel zymography of HEp3 conditioned medium, MMP-2", "assay_type": "biochemical, human", "details": "1.6 μM, highest concentration tested", "description": "(§1) FIG. 10. […] Serum-free conditioned medium of HEp3 cells was collected and electrophoresed on PAGE by loading 10 μl into each of five wells. The gel was sliced to include one sample per slice and each slice was incubated with marimastat at the indicated concentrations (0-1.6 μM) and the gels were incubated only for 22 hr.\n(§2) Ten μl aliquots of conditioned media were electrophoresed at 4° C. on 8% PAGE containing 0.1% gelatin, the gel washed in 2.5% Triton X-100 for 30 min, rinsed in water, and incubated for 40 hrs at 37° C. in buffer containing 50 mM Tris pH 7.7, 5 mM CaCl2, and 0.02% NaN3. To test for inhibition of MMPs by BB2516, HEp3 cell conditioned medium was electrophoresed in quadruplicate. The gel was cut into 4 fragments each containing one sample (lane) and incubated separately as above except that marimastat was added in increasing concentration to the incubation buffer. All gels were stained with Coomassie blue, de-stained and dried between dialysis sheets."}, "MMP-9": {"test_system": "MMP-9", "experiment": "Gelatin gel zymography of HEp3 conditioned medium, MMP-9", "assay_type": "biochemical, human", "details": "80 nM", "description": "as §1, §2"}, "HEp3 cells": {"test_system": "HEp3 cells", "experiment": "Intravasation assay: chick embryo CAM with Alu-PCR of lower CAM", "assay_type": "in vivo, human"}, "[1]": {"test_system": "MMP-1, MMP-2, MMP-3, MMP-7 and MMP-9", "details": "one range printed for MMP-1, MMP-2, MMP-3, MMP-7 and MMP-9 together; cited from earlier work"}, "MMP-1": {"test_system": "MMP-1", "experiment": "Gelatin gel zymography of HEp3 conditioned medium, MMP-1", "assay_type": "biochemical, human", "details": "80 nM", "description": "as §1, §2"}}, "data": [{"smiles": "CNC(=O)[C@@H](NC(=O)[C@H](CC(C)C)[C@H](O)C(=O)NO)C(C)(C)C", "note": "[marimastat]", "values": [{"measurement": "inhibition of MMP-2 activity (zymogram)", "setting": "MMP-2", "value": "residual lysis zone"}, {"measurement": "inhibition of MMP-2 activity (zymogram)", "setting": "MMP-2; listed as Marimastat", "value": "not completely inhibited"}, {"measurement": "inhibition of MMP-9 activity (zymogram)", "setting": "MMP-9", "value": "block most"}, {"measurement": "inhibition of intravasation", "setting": "HEp3 cells; 200 μM inhibitor, compared with 100 μM", "value": "less effective"}, {"measurement": "inhibition of intravasation", "setting": "HEp3 cells; final concentration of 50 nM, separate experiment", "value": "more than 60%"}, {"measurement": "IC50", "setting": "[1]", "value": "[…]"}, {"measurement": "inhibition of MMP-1 activity (zymogram)", "setting": "MMP-1", "value": "all of the MMP-1 activity"}]}]}
